One series has as its target CFTR (Homo sapiens, UniProt P13569). Put plainly: Membrane Potential Dye, Enteroid Assay B. In kind it is cell-based. The method, boiled down: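 Activity given as % of a triple-combination reference (1 μM and 3 μM correctors, 300 nM acute potentiator). Enteroids were preincubated 18-24 h with compound; chloride efflux then measured 15 min by methyl oxonol fluorescence after forskolin/IBMX/Compound III stimulation in chloride-free buffer containing CaCCinh-A01 and Chicago Sky Blue.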

For series [1] the following is noted: amide bond, 13-membered ring, DMF.
The mark [2] stands for this setting: Table 10, read-out: Ent. B EC50.

Structures are written as SMILES. pEC50: −log10 of the molar value. Like-named read-outs stand apart in the source and are kept apart here.

Chain of CFTR (P13569 with tags, fused parts or gaps DEL508-508): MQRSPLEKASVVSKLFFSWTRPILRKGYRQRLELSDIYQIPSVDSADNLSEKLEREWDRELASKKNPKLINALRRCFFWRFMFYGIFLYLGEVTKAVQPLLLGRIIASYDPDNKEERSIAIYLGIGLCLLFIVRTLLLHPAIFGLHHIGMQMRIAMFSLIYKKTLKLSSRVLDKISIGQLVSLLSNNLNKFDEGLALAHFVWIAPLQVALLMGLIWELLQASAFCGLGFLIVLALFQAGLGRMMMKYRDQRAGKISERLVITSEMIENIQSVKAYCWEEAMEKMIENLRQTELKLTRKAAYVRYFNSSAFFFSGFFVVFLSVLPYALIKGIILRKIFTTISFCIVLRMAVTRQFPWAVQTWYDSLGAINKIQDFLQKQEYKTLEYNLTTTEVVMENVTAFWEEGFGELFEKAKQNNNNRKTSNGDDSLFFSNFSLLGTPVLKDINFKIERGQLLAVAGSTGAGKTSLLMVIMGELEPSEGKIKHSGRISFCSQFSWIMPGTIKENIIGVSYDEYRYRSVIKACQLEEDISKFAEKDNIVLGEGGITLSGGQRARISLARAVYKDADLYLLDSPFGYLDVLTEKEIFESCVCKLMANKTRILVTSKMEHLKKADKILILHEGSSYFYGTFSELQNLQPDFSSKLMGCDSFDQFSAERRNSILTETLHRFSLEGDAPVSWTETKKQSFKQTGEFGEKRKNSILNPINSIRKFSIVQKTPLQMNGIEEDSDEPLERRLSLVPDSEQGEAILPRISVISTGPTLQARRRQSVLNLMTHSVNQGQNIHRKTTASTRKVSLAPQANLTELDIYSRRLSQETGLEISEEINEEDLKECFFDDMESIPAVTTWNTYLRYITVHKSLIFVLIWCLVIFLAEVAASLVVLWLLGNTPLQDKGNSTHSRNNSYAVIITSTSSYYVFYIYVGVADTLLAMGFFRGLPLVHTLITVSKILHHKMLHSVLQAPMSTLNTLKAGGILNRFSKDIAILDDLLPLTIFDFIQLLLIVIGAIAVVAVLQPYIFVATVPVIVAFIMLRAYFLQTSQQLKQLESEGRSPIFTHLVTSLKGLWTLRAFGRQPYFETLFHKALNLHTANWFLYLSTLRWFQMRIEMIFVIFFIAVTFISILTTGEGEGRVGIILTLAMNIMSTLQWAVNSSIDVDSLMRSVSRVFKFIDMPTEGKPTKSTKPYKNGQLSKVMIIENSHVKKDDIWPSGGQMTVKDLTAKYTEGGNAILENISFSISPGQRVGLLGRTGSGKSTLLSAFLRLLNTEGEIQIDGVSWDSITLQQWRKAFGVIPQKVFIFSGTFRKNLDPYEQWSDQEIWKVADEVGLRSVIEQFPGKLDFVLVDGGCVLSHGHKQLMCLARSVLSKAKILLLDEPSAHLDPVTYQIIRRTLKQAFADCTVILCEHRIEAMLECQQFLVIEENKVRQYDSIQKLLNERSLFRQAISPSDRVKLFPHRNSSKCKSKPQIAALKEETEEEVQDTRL

What is called pEC50 is the negative decadic logarithm of the EC50, by convention in mol/L. For `Cc1cccc(C)c1-c1cc2nc(n1)NS(=O)(=O)c1cncc(n1)C(=O)N(C1CC3(CC3)C1)[C@H](CC(C)C)CO2` [Compound 62, (11R)-6-(2,6-Dimethylphenyl)-11-isobutyl-2,2-dioxo-12-spiro[2.3]hexan-5-yl-9-oxa-2λ^6-thia-3,5,12,16,18,19-hexazatricyclo[12.3.1.14,8]nonadeca-1(18),4(19),5,7,14,16-hexaen-13-one], the “Ent. B Max Activity (%)” value on CFTR is listed as “+++ (+++ is >60%)”. In addition, the pEC50 at CFTR (read-out: Ent. B EC50) was greater than 6.00. In series [1] (from Cc1cccc(C)c1-c1cc(OC[C@@H](CC(C)C)NC2CC3(CC3)C2)nc(NS(=O)(=O)c2cncc(C(=O)O)n2)n1, HATU/DIEA, 15.2 mM, 12.0 h), this compound had a ring closure, yield after HPLC of 65%.

As for `Cc1cccc(C)c1-c1cc2nc(n1)NS(=O)(=O)c1cccc(c1)C(=O)N(C1CC(OC(C)C)C1)[C@H](CC(C)C)CO2` (stereo partly drawn) [Compound 47, (11R)-6-(2,6-Dimethylphenyl)-11-isobutyl-12-(3-isopropoxycyclobutyl)-2,2-dioxo-9-oxa-2λ^6-thia-3,5,12,19-tetrazatricyclo[12.3.1.14,8]nonadeca-1(18),4(19),5,7,14,16-hexaen-13-one], the “Ent. B Max Activity (%)” value at CFTR (Table 9) was “+++ (+++ is >60%)”. Also, the pEC50 at CFTR (Table 9, read-out: Ent. B EC50) is greater than 6.00. Also, the ring closure, yield after HPLC in series [1] (from Cc1cccc(C)c1-c1cc(OC[C@@H](CC(C)C)NC2CC(OC(C)C)C2)nc(NS(=O)(=O)c2cccc(C(=O)O)c2)n1, HATU/Et3N, 59.2 mM, 2.0 h) came to 53%.

Take `Cc1cccc(C)c1-c1cc2nc(n1)NS(=O)(=O)c1cccc(c1)C(=O)N(C1CC3(CC3)C1)C[C@@H](C)O2` [Compound 180, (10R)-6-(2,6-Dimethylphenyl)-10-methyl-2,2-dioxo-12-spiro[2.3]hexan-5-yl-9-oxa-2λ^6-thia-3,5,12,19-tetrazatricyclo[12.3.1.14,8]nonadeca-1(18),4(19),5,7,14,16-hexaen-13-one]: at CFTR, the “Ent. B Max Activity (%)” value is reported as “+++ (+++ is >60%)”. For the same compound, on CFTR (read-out: Ent. B EC50), the pEC50 is greater than 6.00. In addition, in series [1] (from Cc1cccc(C)c1-c1cc(O[C@H](C)CNC2CC3(CC3)C2)nc(NS(=O)(=O)c2cccc(C(=O)O)c2)n1, HATU/DIEA, 7.3 mM, 1.0 h, 2 steps), the ring closure, yield after HPLC was 6%.

Take `Cc1cccc(C)c1-c1cc2nc(n1)NS(=O)(=O)c1cccc(c1)C(=O)N(c1cnn(C)c1)[C@H](CCC(C)C)CO2` [Compound 7, (11R)-6-(2,6-Dimethylphenyl)-11-isopentyl-12-(1-methylpyrazol-4-yl)-2,2-dioxo-9-oxa-2λ^6-thia-3,5,12,19-tetrazatricyclo[12.3.1.14,8]nonadeca-1(18),4(19),5,7,14,16-hexaen-13-one]: on CFTR (Table 10), the “Ent. B Max Activity (%)” value is “+++ (+++ is >60%)”. Further, the pEC50 on CFTR (setting [2]) is greater than 6.00. The compound also yielded a ring closure, yield after HPLC in series [1] (from Cc1cccc(C)c1-c1cc(OC[C@@H](CCC(C)C)Nc2cnn(C)c2)nc(NS(=O)(=O)c2cccc(C(=O)O)c2)n1, CDMT/NMM, 48.0 h, 2 steps) of 19%.

On to `Cc1cccc(C)c1-c1cc2nc(n1)NS(=O)(=O)c1cccc(c1)C(=O)N(C1Cc3ccccc3C1)[C@H](CC(C)(C)C)CO2` [Compound 183, (11R)-6-(2,6-Dimethylphenyl)-11-(2,2-dimethylpropyl)-12-indan-2-yl-2,2-dioxo-9-oxa-2λ^6-thia-3,5,12,19-tetrazatricyclo[12.3.1.14,8]nonadeca-1(18),4(19),5,7,14,16-hexaen-13-one], for which, on CFTR (Table 10), the “Ent. B Max Activity (%)” value is on record as “+++ (+++ is >60%)”. The pEC50 at CFTR (setting [2]) was greater than 6.00. In series [1] (from Cc1cccc(C)c1-c1cc(OC[C@@H](CC(C)(C)C)NC2Cc3ccccc3C2)nc(NS(=O)(=O)c2cccc(C(=O)O)c2)n1, CDMT/NMM, 25.7 mM, 24.0 h), this compound had a ring closure, yield after HPLC of 13%.

Take `Cc1cc(F)cc(C)c1-c1cc2nc(n1)NS(=O)(=O)c1cccc(c1)C(=O)N(C1CC3(CC3)C1)[C@H](CC(C)C)CO2` [Compound 10, (11R)-6-(4-Fluoro-2,6-dimethyl-phenyl)-11-isobutyl-2,2-dioxo-12-spiro[2.3]hexan-5-yl-9-oxa-2λ^6-thia-3,5,12,19-tetrazatricyclo[12.3.1.14,8]nonadeca-1(18),4(19),5,7,14,16-hexaen-13-one]: at CFTR (Table 9), the “Ent. B Max Activity (%)” value is reported as “+++ (+++ is >60%)”. The pEC50 at CFTR (Table 9, read-out: Ent. B EC50) is greater than 6.00. For the same compound, in series [1] (from Cc1cc(F)cc(C)c1-c1cc(OC[C@@H](CC(C)C)NC2CC3(CC3)C2)nc(NS(=O)(=O)c2cccc(C(=O)O)c2)n1, HATU/TEA, 53.7 mM, 25.0 °C, 4.0 h), the ring closure, yield after HPLC was 48%.

With `Cc1cccc(C)c1-c1cc2nc(n1)NS(=O)(=O)c1cccc(c1)C(=O)N(C1CC(C(=O)OC(C)(C)C)C1)[C@H](CC(C)C)CO2` (stereo partly drawn), the ring closure, yield after HPLC in series [1] (from Cc1cccc(C)c1-c1cc(OC[C@@H](CC(C)C)NC2CC(C(=O)OC(C)(C)C)C2)nc(NS(=O)(=O)c2cccc(C(=O)O)c2)n1, HATU/DIEA, 16.0 h, 2 steps) was determined as 79%.

Turning to `Cc1cccc(C)c1-c1cc2nc(n1)NS(=O)(=O)c1cccc(c1)C(=O)N(C1CC(OC(C)C)C1)[C@H](CC1(C(F)(F)F)CC1)CO2` (stereo partly drawn), the ring closure, yield after HPLC in series [1] (from Cc1cccc(C)c1-c1cc(OC[C@@H](CC2(C(F)(F)F)CC2)NC2CC(OC(C)C)C2)nc(NS(=O)(=O)c2cccc(C(=O)O)c2)n1, HATU/TEA, 44.0 mM, 16.0 h) was 18%.

Consider `Cc1cccc(C)c1-c1cc2nc(n1)NS(=O)(=O)c1cccc(c1)C(=O)N(C1CC(CO)C1)[C@H](CC(C)C)CO2` (stereo partly drawn), for which the ring closure, yield after HPLC in series [1] (from Cc1cccc(C)c1-c1cc(OC[C@@H](CC(C)C)NC2CC(CO)C2)nc(NS(=O)(=O)c2cccc(C(=O)O)c2)n1, HATU/DIPEA, 32.3 mM, 1.0 h) is 11%.

Source of the values: patent US20230382925A1, “MODULATORS OF CYSTIC FIBROSIS TRANSMEMBRANE CONDUCTANCE REGULATOR” (VERTEX PHARMACEUTICALS INCORPORATED, priority 2020, published 2023).
